Measurements: the kinase profiling compilation of Christmann-Franck et al. (2016)

Legend:
ATM (human) = ATM (human) (UniProt Q13315)
BMP2K (human) = BMP2K (human) (UniProt Q9NSY1)
BRAF (human) = BRAF (human) (UniProt P15056)
CAMK1D (human) = CAMK1D (human) (UniProt Q8IU85)
CAMK2A (human) = CAMK2A (human) (UniProt Q9UQM7)
CAMK2G (human) = CAMK2G (human) (UniProt Q13555)
CAMKK2 (human) = CAMKK2 (human) (UniProt Q96RR4)
CDKL2 (human) = CDKL2 (human) (UniProt Q92772)
CSK (human) = CSK (human) (UniProt P41240)
CSNK1G3 (human) = CSNK1G3 (human) (UniProt Q9Y6M4)
DDR1 (human) = DDR1 (human) (UniProt Q08345)
EPHA4 (human) = EPHA4 (human) (UniProt P54764)
FER (human) = FER (human) (UniProt P16591)
FES (human) = FES (human) (UniProt P07332)
FYN (human) = FYN (human) (UniProt P06241)
HCK (human) = HCK (human) (UniProt P08631)
IKBKE (human) = IKBKE (human) (UniProt Q14164)
IRAK3 (human) = IRAK3 (human) (UniProt Q9Y616)
Chain of IRAK3 (human) (Q9Y616 whole entry, looked up): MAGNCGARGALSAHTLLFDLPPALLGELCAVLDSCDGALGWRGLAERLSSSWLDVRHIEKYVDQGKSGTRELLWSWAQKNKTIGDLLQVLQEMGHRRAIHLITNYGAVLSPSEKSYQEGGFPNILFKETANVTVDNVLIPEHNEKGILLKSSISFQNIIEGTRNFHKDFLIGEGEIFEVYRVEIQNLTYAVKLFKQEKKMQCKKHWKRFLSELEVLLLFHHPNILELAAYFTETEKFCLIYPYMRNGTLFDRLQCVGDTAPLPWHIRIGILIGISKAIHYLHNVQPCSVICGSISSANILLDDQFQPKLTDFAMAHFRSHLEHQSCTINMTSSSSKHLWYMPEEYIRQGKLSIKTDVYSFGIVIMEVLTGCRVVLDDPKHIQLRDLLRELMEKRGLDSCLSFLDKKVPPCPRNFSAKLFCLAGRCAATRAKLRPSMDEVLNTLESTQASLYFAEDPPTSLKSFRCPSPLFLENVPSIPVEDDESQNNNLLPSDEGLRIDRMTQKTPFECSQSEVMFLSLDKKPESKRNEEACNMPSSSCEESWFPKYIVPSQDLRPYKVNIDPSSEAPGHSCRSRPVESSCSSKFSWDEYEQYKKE

JAK3 JH1 JH2 (human) = JAK3 JH1 JH2 (human) (UniProt P52333)
Chain of JAK3 JH1 JH2 (human) (P52333 whole entry, looked up): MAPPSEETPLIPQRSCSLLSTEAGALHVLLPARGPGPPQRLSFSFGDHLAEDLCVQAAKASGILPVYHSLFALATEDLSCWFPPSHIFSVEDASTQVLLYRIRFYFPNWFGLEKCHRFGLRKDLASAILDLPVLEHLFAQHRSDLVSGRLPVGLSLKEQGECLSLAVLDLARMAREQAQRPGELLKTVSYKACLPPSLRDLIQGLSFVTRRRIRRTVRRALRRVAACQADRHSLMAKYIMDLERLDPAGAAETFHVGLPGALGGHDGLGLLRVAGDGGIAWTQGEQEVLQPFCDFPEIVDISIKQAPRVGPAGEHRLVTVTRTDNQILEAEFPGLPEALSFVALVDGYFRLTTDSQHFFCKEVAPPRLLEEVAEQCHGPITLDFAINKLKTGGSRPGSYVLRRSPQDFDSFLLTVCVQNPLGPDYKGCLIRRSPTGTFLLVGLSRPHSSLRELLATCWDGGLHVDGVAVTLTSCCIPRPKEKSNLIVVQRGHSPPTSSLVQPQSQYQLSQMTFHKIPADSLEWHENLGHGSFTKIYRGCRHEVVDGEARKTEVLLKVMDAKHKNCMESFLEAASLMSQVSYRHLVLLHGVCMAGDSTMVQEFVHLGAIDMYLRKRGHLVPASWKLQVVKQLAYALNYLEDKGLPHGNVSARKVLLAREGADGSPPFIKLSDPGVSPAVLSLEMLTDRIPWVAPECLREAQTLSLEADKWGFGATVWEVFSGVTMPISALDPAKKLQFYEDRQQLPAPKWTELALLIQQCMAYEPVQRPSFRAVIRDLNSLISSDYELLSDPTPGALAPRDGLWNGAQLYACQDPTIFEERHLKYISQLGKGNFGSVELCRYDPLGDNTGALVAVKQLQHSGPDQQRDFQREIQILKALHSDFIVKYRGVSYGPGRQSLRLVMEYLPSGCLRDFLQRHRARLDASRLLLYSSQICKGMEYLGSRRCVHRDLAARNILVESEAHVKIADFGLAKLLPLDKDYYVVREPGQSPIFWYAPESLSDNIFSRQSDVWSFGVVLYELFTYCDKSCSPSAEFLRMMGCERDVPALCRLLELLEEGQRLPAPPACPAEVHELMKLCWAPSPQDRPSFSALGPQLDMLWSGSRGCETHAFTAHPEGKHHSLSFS

LRRK2 (human) = LRRK2 (human) (UniProt Q5S007)
LYN (human) = LYN (human) (UniProt P07948)
MAP2K5 (human) = MAP2K5 (human) (UniProt Q13163)
MAP2K6 (human) = MAP2K6 (human) (UniProt P52564)
Chain of MAP2K6 (human) (P52564 whole entry, looked up): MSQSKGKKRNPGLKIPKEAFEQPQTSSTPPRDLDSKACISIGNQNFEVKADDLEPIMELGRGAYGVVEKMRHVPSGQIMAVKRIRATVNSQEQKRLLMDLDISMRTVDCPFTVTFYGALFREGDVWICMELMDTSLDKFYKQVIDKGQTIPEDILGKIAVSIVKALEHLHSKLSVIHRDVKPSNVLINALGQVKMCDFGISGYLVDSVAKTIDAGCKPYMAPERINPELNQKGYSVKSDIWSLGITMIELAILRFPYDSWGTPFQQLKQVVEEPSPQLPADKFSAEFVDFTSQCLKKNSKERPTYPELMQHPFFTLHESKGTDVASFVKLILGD

MAPK1 (human) = MAPK1 (human) (UniProt P28482)
MAPK14 (human) = MAPK14 (human) (UniProt Q16539)
MAPK3 (human) = MAPK3 (human) (UniProt P27361)
MAST3 (human) = MAST3 (human) (UniProt O60307)
PAK4 (human) = PAK4 (human) (UniProt O96013)
PIK3C2B (human) = PIK3C2B (human) (UniProt O00750)
PKN1 (human) = PKN1 (human) (UniProt Q16512)
PRKCD (human) = PRKCD (human) (UniProt Q05655)
PRKDC (human) = PRKDC (human) (UniProt P78527)
PTK2 (human) = PTK2 (human) (UniProt Q05397)
Chain of PTK2 (human) (Q05397 whole entry, looked up): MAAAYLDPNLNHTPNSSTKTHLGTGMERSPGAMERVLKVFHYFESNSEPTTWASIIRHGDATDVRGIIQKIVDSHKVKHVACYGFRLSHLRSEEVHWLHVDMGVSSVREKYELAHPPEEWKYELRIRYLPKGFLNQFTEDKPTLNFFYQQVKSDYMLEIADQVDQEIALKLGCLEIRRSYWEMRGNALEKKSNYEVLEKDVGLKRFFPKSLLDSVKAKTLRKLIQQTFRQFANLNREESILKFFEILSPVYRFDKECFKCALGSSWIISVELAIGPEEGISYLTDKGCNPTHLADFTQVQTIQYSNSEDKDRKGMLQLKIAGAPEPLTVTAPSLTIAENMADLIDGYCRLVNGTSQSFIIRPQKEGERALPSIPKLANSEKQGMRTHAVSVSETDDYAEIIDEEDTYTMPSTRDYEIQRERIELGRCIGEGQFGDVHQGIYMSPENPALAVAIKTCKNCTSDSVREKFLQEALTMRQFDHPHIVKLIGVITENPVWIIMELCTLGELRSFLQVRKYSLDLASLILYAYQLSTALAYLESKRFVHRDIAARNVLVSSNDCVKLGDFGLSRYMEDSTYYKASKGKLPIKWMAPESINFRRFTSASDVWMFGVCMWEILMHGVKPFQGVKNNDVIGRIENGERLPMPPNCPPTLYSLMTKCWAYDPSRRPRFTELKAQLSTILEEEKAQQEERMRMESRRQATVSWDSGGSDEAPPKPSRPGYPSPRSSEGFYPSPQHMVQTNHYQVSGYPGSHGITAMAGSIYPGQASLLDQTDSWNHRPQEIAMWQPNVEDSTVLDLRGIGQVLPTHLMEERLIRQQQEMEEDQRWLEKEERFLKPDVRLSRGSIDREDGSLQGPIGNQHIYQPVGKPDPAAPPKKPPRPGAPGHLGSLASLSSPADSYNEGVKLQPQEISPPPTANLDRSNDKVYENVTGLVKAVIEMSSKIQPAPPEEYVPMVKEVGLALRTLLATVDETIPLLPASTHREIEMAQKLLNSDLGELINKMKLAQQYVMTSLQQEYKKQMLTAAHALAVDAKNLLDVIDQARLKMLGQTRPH

RIPK2 (human) = RIPK2 (human) (UniProt O43353)
RPS6KA5 KD1 KD2 (human) = RPS6KA5 KD1 KD2 (human) (UniProt O75582)
SGK223 (human) = SGK223 (human) (UniProt Q86YV5)
Chain of SGK223 (human) (Q86YV5 whole entry, looked up): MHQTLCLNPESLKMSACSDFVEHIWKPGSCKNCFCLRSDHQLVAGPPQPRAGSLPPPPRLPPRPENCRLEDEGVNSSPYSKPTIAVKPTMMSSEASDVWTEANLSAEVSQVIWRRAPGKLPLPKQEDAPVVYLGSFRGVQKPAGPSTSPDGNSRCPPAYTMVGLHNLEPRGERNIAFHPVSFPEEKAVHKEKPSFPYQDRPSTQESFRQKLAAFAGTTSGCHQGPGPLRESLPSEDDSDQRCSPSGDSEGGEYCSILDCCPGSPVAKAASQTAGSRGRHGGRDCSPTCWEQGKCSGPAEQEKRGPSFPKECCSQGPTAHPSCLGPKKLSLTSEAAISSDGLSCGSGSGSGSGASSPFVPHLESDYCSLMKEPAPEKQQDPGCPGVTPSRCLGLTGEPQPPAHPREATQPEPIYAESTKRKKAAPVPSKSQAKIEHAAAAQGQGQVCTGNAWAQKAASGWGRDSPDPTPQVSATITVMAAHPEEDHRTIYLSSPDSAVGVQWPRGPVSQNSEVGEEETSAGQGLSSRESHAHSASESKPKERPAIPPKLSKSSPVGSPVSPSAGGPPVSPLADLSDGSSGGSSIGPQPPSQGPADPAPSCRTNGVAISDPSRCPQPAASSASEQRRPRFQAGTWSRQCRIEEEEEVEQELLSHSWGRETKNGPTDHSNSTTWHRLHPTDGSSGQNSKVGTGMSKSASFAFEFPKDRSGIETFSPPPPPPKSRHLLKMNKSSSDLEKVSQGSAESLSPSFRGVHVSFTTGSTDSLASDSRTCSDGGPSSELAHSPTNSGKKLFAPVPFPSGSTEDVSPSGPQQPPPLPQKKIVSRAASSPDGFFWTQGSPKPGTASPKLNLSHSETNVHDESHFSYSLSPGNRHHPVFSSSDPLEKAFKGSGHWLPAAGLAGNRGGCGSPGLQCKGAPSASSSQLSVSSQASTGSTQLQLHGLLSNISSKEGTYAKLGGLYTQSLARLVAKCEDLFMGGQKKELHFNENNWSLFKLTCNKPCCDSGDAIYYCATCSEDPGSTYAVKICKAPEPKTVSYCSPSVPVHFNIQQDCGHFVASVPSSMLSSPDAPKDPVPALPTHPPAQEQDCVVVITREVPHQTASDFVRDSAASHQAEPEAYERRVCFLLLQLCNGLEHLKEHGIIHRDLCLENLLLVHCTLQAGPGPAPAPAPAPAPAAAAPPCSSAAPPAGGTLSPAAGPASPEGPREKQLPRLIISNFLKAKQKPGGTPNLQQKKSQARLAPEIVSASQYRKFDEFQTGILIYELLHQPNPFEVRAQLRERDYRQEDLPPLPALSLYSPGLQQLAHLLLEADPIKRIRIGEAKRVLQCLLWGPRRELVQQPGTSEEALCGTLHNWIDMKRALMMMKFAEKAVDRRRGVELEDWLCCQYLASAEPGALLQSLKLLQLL

SIK3 (human) = SIK3 (human) (UniProt Q9Y2K2)
SRC (human) = SRC (human) (UniProt P12931)
STK10 (human) = STK10 (human) (UniProt O94804)
STK17B (human) = STK17B (human) (UniProt O94768)
STK4 (human) = STK4 (human) (UniProt Q13043)
Chain of STK4 (human) (Q13043 whole entry, looked up): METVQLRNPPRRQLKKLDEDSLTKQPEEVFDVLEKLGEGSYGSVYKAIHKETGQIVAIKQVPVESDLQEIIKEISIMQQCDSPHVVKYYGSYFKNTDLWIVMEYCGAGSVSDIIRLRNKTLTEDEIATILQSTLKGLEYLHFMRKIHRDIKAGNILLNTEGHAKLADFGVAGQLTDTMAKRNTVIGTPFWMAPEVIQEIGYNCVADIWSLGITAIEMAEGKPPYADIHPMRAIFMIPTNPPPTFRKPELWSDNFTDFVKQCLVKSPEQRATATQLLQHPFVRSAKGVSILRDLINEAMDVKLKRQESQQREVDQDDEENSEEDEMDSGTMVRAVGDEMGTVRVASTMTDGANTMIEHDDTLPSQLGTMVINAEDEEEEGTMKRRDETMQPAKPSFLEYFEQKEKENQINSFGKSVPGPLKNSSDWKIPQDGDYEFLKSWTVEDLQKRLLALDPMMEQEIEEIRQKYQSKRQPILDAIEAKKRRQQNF

STRADA (human) = STRADA (human) (UniProt Q7RTN6)
SYK (human) = SYK (human) (UniProt P43405)
YES1 (human) = YES1 (human) (UniProt P07947)

IC50 (ATM (human)): > 10 µM
IC50 (BMP2K (human)): > 10 µM
IC50 (BRAF (human)): > 10 µM
IC50 (CAMK1D (human)): > 10 µM
IC50 (CAMK2A (human)): > 10 µM
IC50 (CAMK2G (human)): 8.42 µM
IC50 (CAMKK2 (human)): 0.925 µM
IC50 (CDKL2 (human)): > 10 µM
IC50 (CSK (human)): > 10 µM
IC50 (CSNK1G3 (human)): > 10 µM
IC50 (DDR1 (human)): > 10 µM
IC50 (EPHA4 (human)): > 10 µM
IC50 (FER (human)): > 10 µM
IC50 (FES (human)): > 10 µM
IC50 (FYN (human)): > 10 µM
IC50 (HCK (human)): > 10 µM
IC50 (IKBKE (human)): > 10 µM
IC50 (IRAK3 (human)): > 10 µM
IC50 (JAK3 JH1 JH2 (human)): > 10 µM
IC50 (LRRK2 (human)): 9.63 µM
IC50 (LYN (human)): > 10 µM
IC50 (MAP2K5 (human)): 9.71 µM
IC50 (MAP2K6 (human)): > 10 µM
IC50 (MAPK1 (human)): > 10 µM
IC50 (MAPK14 (human)): > 10 µM
IC50 (MAPK3 (human)): > 10 µM
IC50 (MAST3 (human)): > 10 µM
IC50 (PAK4 (human)): > 10 µM
IC50 (PIK3C2B (human)): > 10 µM
IC50 (PKN1 (human)): > 10 µM
IC50 (PRKCD (human)): 1.19 µM
IC50 (PRKDC (human)): > 10 µM
IC50 (PTK2 (human)): > 10 µM
IC50 (RIPK2 (human)): > 10 µM
IC50 (RPS6KA5 KD1 KD2 (human)): > 10 µM
IC50 (SGK223 (human)): > 10 µM
IC50 (SIK3 (human)): > 10 µM
IC50 (SRC (human)): > 10 µM
IC50 (STK10 (human)): > 10 µM
IC50 (STK17B (human)): > 10 µM
IC50 (STK4 (human)): > 10 µM
IC50 (STRADA (human)): > 10 µM
IC50 (SYK (human)): > 10 µM
IC50 (YES1 (human)): > 10 µM
SMILES: CN1CC[C@H](c2c(O)cc(O)c3c(=O)cc(-c4ccccc4Cl)oc23)[C@H](O)C1
